Laboratory results published in US8906393B2, “Biofilm inhibiting composition” (Rutgers, The State University of New Jersey, priority 2011, dated 2014).

Assays:
S. aureus strain SH1000 = assay: Biofilm inhibition assay (96-well microtiter plate crystal violet binding); format: cell-based, Staphylococcus aureus
Procedure: (§1) Biofilm inhibition assay. Biofilms were cultured in 96-well polystyrene microtiter plates as previously described. Briefly, cells were diluted to 104 to […] CFU/ml in TSB supplemented with 0.1 vol of PAM extract, or 0.1 vol of water as a control. Aliquots of cells (200 μl each) were transferred to the wells of a microtiter plate, and the plate was incubated at 37° C. for 18 h. Biofilms were washed with water and stained for 1 min with 200 μl of Gram's crystal violet. Stained biofilms were rinsed with water and dried. The amount of crystal violet binding was quantitated by destaining the biofilms for 10 min with 200 μl of 33% acetic acid, and then measuring the absorbance of the crystal violet solution at 595 nm. All assays were performed 3-5 times with similarly significant decreases in absorbance values.
Expressing the K. kingae pam genes in E. coli. Plasmids pGEM-T, pMB10, pMB5 and pMB9 were transformed into E. coli strain JM109. Transformants were selected on agar supplemented with 50 μg/ml ampicillin. Lawns of transformants were grown on agar plates supplemented with 50 μg/ml ampicillin and 1 mM IPTG. Lawns were harvested and cell-free extracts were prepared by ultracentrifugation as described above. Extracts were sterilized by passage through a 0.22-μm filter, incubated at 100° C. for 15 min, and then tested for activity in the biofilm inhibition assay described above.

K. pneumoniae = assay: Biofilm inhibition assay (96-well microtiter plate); format: cell-based, Klebsiella pneumoniae; details: K. pneumoniae 1840; crystal violet
Procedure: as §1

K. kingae = assay: as above; format: cell-based, Kingella kingae; details: K. kingae PYKK181; crystal violet
Procedure: as §1

Measured: biofilm-inhibiting activity of purified PAM galactan

→3)-β-D-Galf-(1→6)-β-D-Galf-(1→ [PAM galactan]
exhibited biofilm-inhibiting activity: all assays above
